# Laboratory results reported in US4792559A, “1,2,3,4-tetrahydroquinoline substituted 5-aminopentanenitrile compounds and their use as calcium modulators” (ADIR et Compagnie, priority 1985, dated 1988).
# “Also recorded” adds a separate entry of the source.
# How the values were obtained:
# [1] = tested on: aorta; assay: Isolated rat aorta rings stimulated with potassium-rich solution (K+ 100 mM), relaxation; parameters: species or system rat (male Wistar); conditions: aorta rings stimulated with K+ 100 mM, read-out: AORTA St:K+ IC50
# Procedure: (§1) a. Study of isolated organs removed from rats
# (§2) Male Wistar rats weighing from 350 to 400 g are used.
# (§3) After rapid sacrifice of the animal, the following are removed:
# (§4) the aorta, dissected and prepared in rings; after an equilibration period of 1 hour in the reference physiological solution (1), the prepared specimens are stimulated with a solution rich in potassium (K^+) (100 mM) or with noradrenaline (NA) (10^-6 M).
# (§5) The substances to be tested are then added (test sample 0.2 ml) in cumulative doses every 15 minutes.
# (§6) The relaxation values obtained permit an activity-dose curve to be constructed, enabling the IC50 to be calculated in M.
# (§7) The characteristics of the solutions used are as follows: […]
# [2] = tested on: aorta; assay: Isolated rat aorta rings stimulated with noradrenaline (10^-6 M), relaxation; parameters: species or system rat (male Wistar); conditions: read-out: AORTA St:NA IC50
# Procedure: as §1, §2, §3, §4, §5, §6, §7
# [3] = tested on: right auricle (RA); assay: Isolated right auricle, chronotropic effect; parameters: species or system rat (male Wistar); conditions: Rattus norvegicus; spontaneously beating; read-out: RIGHT AURICLE (RA) (CHRONOTROPIC EFFECT) IC50
# Procedure: as §1, §2
# (§8) the right auricle (RA) and left auricle (LA) RA beats spontaneously.
# (§9) Stabilisation is obtained in physiological liquid (2) after 30 minutes.
# (§10) The substances to be tested are then added (test sample 0.2 ml) in cumulative doses every 15 minutes. The effects on RA are chronotropic. The effects on LA are inotropic. The construction of the activity-dose curves enables the IC50, expressed in M, to be measured.
# [4] = tested on: left auricle (LA); assay: Isolated left auricle, inotropic effect; parameters: species or system rat (male Wistar); conditions: Rattus norvegicus; stimulated electrically at 3 Hz
# Procedure: as §1, §2, §8
# LA is stimulated electrically at a rate of 3 Hz (180 beats per min.) (amplitude of the stimulations: threshold×2).
# as §9, §10
# [5] = tested on: left auricle / aorta; assay: Evaluation of myocardium/vessel selectivity (IC50 LA/IC50 aorta); parameters: species or system rat (male Wistar)
# Text: c. Evaluation of myocardium/vessel selectivity
# The IC50 LA/IC50 aorta ratio leads to a first evaluation; the high values indicate vascular selectivity.
# [6] = target: calmodulin (Homo sapiens, UniProt P0DP23); assay: Calcium calmodulin binding, fluorescence of dansylated calmodulin
# Procedure: b. Fixation on calcium calmodulin binding
# The orientations of synthesis which may lead to possibilities of inhibiting calmodulin are evaluated by measuring the fluorescence of dansylated calmodulin.
# The substances to be tested are added to the experimental vessel (2 ml). The increase in fluorescence of dansylated calmodulin enables effect-dose curves to be constructed; measuring the EC50 gives an apparent Kd value. After extrapolation of the apparent Kd values to 0 calmodulin, the experiments carried out for different calcium-calmodulin concentration values enable the characteristic Kd values of the tested substances to be determined (Method proposed by Johnson and Wittenauer, 1983, Biochem., 211, 473-479).
# d. Evaluation of the possibility of inhibition at the calmodulin level
# [7] = tested on: aorta artery of the rat without endothelium; assay: Contraction of rat aorta without endothelium by ionophore calcium A 23187; conditions: Rattus norvegicus, A 23187 at 5.10^-6 M
# [8] = target: T1, Ca++ channels of membranes of transverse tubules in skeletal muscle (Homo sapiens, UniProt Q13698); assay: Binding on Ca++ channels of membranes of transverse tubules in skeletal muscle
# T1 construct: membranes of transverse tubules in skeletal muscle; from tissue; host or cells: skeletal muscle, transverse tubule membranes
# T1 sequence (Q13698 whole entry): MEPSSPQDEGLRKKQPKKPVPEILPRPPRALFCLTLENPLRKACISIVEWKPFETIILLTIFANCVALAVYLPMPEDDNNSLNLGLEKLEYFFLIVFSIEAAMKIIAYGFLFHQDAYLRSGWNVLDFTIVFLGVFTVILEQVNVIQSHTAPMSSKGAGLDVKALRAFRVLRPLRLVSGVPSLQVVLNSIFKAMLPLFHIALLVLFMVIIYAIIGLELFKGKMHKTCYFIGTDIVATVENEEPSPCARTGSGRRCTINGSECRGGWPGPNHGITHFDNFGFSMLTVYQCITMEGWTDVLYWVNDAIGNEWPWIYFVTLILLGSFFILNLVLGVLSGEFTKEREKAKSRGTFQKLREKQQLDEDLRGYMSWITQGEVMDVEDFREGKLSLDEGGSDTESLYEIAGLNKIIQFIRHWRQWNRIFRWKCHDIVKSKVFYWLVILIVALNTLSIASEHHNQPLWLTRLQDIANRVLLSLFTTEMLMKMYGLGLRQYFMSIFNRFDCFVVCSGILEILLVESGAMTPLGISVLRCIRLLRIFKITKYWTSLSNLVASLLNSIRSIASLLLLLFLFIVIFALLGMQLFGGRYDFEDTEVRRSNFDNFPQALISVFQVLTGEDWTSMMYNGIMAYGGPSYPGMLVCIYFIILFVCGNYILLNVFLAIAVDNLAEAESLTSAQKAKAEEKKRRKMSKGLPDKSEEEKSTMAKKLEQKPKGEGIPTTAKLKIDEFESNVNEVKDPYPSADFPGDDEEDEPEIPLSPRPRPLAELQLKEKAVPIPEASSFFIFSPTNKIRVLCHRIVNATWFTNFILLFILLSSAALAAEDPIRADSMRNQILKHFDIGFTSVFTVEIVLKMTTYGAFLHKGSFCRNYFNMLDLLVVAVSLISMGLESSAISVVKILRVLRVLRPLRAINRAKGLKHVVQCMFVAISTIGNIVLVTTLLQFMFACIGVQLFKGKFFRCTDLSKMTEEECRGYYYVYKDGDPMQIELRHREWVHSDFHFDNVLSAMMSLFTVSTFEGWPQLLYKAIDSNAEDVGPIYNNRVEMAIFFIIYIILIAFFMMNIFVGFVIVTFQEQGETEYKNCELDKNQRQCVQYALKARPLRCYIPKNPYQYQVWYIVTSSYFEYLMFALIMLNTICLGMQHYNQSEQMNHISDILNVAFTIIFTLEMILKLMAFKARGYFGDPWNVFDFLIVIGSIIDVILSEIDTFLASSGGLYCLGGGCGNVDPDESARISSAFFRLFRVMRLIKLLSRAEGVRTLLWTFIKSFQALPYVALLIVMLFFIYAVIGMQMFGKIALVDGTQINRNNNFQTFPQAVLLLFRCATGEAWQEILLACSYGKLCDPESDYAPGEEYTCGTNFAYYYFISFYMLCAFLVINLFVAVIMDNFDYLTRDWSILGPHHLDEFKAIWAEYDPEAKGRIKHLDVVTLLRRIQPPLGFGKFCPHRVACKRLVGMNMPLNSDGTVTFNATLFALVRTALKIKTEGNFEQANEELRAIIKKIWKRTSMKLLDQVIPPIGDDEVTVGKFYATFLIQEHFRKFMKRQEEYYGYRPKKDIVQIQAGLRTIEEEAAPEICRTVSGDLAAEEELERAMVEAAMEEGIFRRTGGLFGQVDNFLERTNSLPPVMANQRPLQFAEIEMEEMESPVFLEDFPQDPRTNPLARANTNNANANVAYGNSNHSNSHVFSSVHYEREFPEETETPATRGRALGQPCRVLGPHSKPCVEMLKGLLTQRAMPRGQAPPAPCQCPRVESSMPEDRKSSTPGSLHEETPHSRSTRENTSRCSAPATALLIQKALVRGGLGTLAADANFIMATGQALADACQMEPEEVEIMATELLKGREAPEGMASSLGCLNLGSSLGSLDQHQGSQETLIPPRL
# T1 sequence (P54289 25-944 partner limits assumed): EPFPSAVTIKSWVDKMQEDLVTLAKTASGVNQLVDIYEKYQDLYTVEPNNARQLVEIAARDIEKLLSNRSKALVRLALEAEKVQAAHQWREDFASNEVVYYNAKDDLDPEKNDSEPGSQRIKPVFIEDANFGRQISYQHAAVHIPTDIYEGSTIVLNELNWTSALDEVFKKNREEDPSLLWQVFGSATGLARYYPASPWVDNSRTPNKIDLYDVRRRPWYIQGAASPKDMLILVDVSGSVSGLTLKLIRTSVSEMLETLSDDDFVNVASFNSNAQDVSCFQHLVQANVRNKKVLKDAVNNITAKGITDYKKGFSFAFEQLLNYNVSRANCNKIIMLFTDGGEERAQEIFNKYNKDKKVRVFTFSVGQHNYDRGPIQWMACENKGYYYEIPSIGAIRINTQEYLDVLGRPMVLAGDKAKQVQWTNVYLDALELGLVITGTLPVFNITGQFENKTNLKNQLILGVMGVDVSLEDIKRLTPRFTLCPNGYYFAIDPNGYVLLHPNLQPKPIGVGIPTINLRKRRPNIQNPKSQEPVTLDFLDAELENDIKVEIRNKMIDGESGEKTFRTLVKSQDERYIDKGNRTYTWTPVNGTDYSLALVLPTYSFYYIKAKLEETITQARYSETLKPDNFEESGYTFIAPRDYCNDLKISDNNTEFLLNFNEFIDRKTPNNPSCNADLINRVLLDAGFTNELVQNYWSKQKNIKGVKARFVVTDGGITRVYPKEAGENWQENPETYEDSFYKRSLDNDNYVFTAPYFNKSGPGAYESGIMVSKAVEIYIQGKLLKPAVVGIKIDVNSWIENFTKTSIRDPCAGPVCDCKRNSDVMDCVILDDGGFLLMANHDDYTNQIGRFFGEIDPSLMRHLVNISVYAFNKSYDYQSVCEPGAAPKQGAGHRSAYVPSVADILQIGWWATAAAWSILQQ
# T1 sequence (P54289 945-1103 partner limits assumed): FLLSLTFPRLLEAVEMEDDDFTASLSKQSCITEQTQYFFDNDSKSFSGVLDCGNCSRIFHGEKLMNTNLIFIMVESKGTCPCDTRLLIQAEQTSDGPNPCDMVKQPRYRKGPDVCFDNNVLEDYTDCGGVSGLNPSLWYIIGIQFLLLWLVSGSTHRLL
# T1 sequence (Q02641 whole entry partner): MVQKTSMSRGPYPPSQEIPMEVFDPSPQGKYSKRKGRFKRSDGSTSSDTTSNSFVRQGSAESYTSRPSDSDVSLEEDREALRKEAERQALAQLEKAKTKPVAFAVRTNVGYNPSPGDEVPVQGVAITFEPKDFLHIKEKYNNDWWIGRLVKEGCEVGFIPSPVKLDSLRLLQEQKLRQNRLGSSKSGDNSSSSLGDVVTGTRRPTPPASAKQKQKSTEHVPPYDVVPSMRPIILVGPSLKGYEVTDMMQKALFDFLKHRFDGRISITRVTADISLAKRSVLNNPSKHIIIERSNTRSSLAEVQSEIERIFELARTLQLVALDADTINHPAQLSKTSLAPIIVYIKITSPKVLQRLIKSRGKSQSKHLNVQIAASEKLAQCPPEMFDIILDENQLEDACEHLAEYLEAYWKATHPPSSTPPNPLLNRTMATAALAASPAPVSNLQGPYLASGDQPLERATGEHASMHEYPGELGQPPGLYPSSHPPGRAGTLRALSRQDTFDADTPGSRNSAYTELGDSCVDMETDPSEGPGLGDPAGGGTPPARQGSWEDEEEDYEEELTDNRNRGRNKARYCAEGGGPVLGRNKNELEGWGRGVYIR
# T1 sequence (Q06432 whole entry partner): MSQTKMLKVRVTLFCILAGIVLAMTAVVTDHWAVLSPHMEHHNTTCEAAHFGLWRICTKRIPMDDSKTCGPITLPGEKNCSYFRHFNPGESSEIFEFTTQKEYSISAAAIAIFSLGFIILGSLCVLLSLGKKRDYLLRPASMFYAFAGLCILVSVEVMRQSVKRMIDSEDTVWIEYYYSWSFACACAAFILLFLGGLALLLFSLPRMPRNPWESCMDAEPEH
# Text: (§11) C. Binding on Ca^++ channels of membranes of transverse tubules in skeletal muscle.
# [9] = target: T2, Ca++ channels of membranes of transverse tubules in skeletal muscle; assay: as above; conditions: transverse tubules in skeletal muscle; read-out: Kd for the Ca++ channel
# T2 construct: membranes of transverse tubules in skeletal muscle; from tissue; host or cells: skeletal muscle, transverse tubule membranes
# T2 sequence (Q13698 whole entry): as the sequence (Q13698 whole entry) above
# T2 sequence (P54289 25-944 partner limits assumed): as the sequence (P54289 25-944 partner limits assumed) above
# T2 sequence (P54289 945-1103 partner limits assumed): as the sequence (P54289 945-1103 partner limits assumed) above
# T2 sequence (Q02641 whole entry partner): as the sequence (Q02641 whole entry partner) above
# T2 sequence (Q06432 whole entry partner): as the sequence (Q06432 whole entry partner) above
# Text: as §11
# [10] = tested on: dogs; assay: Haemodynamic study in anaesthetised dogs; assay type: in vivo, mongrel dogs; conditions: for dP/dt: Left ventricular pressure derivative, variation: measured at 20 minutes
# Procedure: A haemodynamic study was carried out on mongrel dogs weighing from 25 to 30 kg, which were anaesthetised with sodium pentobarbital in a dose of 30 mg/kg i.v., intubated and ventilated, and subjected to a thoracotomy at the 5th left intercostal space.
# The left and aortal ventricular pressures are measured by means of MILLAR probes introduced by the femoral artery route. The cardiac frequency is measured by Biotach Gould ECG (derivation D2); the gases of the aortal blood and of the coronary sinus are analysed by an ABL3 radiometer.
# The products tested were injected by the femoral vein route.
compound,measurement,setting,value
"COc1cccc(C(C#N)(CCCN(C)CCc2ccc(OC)c3c2CCCN3C(C)=O)Sc2ccccc2)c1 (stereo not drawn) [Example 1, 2-(3-methoxyphenyl)-2-phenylthio-5-{N-[(1-acetyl-8-methoxy-1,2,3,4-tetrahydroquinol-5-yl)ethyl]-N-methylamino}-pentanenitrile]",IC50,[1]; Rattus norvegicus,750 nM
same,IC50,[1],600 nM
same,IC50,[2],5500 nM
same,IC50,[3],10000 nM
same,IC50,[4],82000 nM
same,LA/AORTA SELECTIVITY (St:K+),"[5]; IC50 LA/IC50 aorta, high values indicate vascular selectivity",100
same,vascular selectivity,[5]; compared with verapamil,this selectivity is greatest; also recorded: a greater selectivity in favour of vessels
same,affinity for calmodulin,[6],an affinity for calmodulin coherent with the biological effect
same,Kd/IC50 AORTA K+,[6]; close to 1 indicates vascular inhibition through calmodulin,1.08
same,Kd,"[6]; extrapolated to 0 calmodulin, read-out: Kd (cam)",810 nM
same,mechanism indicated by the pharmacological effects,[6]; in vitro,"intracellular inhibitory mechanisms and, especially, a calcium-calmodulin inhibition mechanism"
same,IC50,[7],~1000 nM
same,affinity for calcium channels relative to verapamil,[8],~20 times the one of verapamil
same,Kd,[9],1 nM
same,"AAP: Average arterial pressure, maximum variation",[10]; IV 30 μg/kg,0%
same,"ACF: Average coronary flow, maximum variation",[10]; IV 30 μg/kg,+54%
same,"CF: Cardiac frequency, maximum variation",[10]; IV 30 μg/kg,-5%
same,"I/C: Myocardial O2 intake/consumption ratio, maximum variation",[10]; IV 30 μg/kg,+19%
same,"PO2 SC: PO2 coronary blood sinus, maximum variation",[10]; IV 30 μg/kg,+14%
same,"PR: PR space of the ECG, maximum variation",[10]; IV 30 μg/kg,0%
same,"AAP: Average arterial pressure, maximum variation",[10]; IV 100 μg/kg,-9%
same,"ACF: Average coronary flow, maximum variation",[10]; IV 100 μg/kg,+109%
same,"CF: Cardiac frequency, maximum variation",[10]; IV 100 μg/kg,-10%
same,"I/C: Myocardial O2 intake/consumption ratio, maximum variation",[10]; IV 100 μg/kg,+55%
same,"PO2 SC: PO2 coronary blood sinus, maximum variation",[10]; IV 100 μg/kg,+36%
same,"PR: PR space of the ECG, maximum variation",[10]; IV 100 μg/kg,+7%
same,"dP/dt: Left ventricular pressure derivative, variation",[10]; IV 100 μg/kg,0%
same,"AAP: Average arterial pressure, maximum variation",[10]; IV 300 μg/kg,-24%
same,"ACF: Average coronary flow, maximum variation",[10]; IV 300 μg/kg,+117%
same,"CF: Cardiac frequency, maximum variation",[10]; IV 300 μg/kg,-14%
same,"I/C: Myocardial O2 intake/consumption ratio, maximum variation",[10]; IV 300 μg/kg,+118%
same,"PO2 SC: PO2 coronary blood sinus, maximum variation",[10]; IV 300 μg/kg,+63%
same,"PR: PR space of the ECG, maximum variation",[10]; IV 300 μg/kg,+19%
same,"dP/dt: Left ventricular pressure derivative, variation",[10]; IV 300 μg/kg,-3%
same,negative inotropic effect / cardiotropic effect,"[10]; i.v., compared with Verapamil",absence of a negative inotropic effect
same,percentage increase in the PR duration,"[10]; i.v., compared with Verapamil",reduction in the percentage increase in the PR duration
